Experimental data: patent US20260062422A1 (Halda Therapeutics OpCo, Inc., priority 2022, published 2026)

What was measured:
T47D cells = test: Cellular growth inhibition assay for T47D cells, CellTiter-Glo; assay type: cell-based, human; conditions: 72 hours treatment, CellTiter-Glo 2.0 cell viability
How it was run: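 Luminescence from CellTiter-Glo 2.0 after 72 h of compound exposure gives the viability signal. Cells grew in insulin-supplemented (0.2 units/mL) DMEM with 10% FBS and were treated one day after seeding at 0.5% DMSO. GI50 values come from four-parameter nonlinear regression.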

VCaP cells = test: Cellular growth inhibition assay for VCaP cells, CellTiter-Glo; assay type: cell-based, human; conditions: Homo sapiens, VCaP, 72 h, 72 hours treatment, CellTiter-Glo 2.0
How it was run: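 GI50 values come from four-parameter curve fits of luminescence data normalized to a zero baseline. Compound, in medium with 0.5% DMSO, was added one day after plating and left for 72 h before CellTiter-Glo 2.0 addition.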

[1] = test system: T-Rex 293 cell line SC3 cells lacking increased expression of androgen receptor protein; test: Cellular growth inhibition, T-Rex 293 SC3 cells without doxycycline, CellTiter-Glo; assay type: cell-based; conditions: T-Rex 293 SC3 cells not exposed to doxycycline, CellTiter-Glo 2.0
How it was run: (§1)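 Doxycycline-inducible androgen receptor T-Rex 293 clone SC3, seeded at 2500/well in phenol red-free DMEM with 10% charcoal-dextran FBS, without doxycycline or with 10 ng/mL to induce receptor. Compound added after 24 h (0.5% DMSO), 72 h at 37 °C; CellTiter-Glo 2.0 luminescence, GI50 by four-parameter fit.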

[2] = test system: T-Rex 293 cell line SC3 cells having increased expression of androgen receptor protein due to exposure to doxycycline; test: Cellular growth inhibition, T-Rex 293 SC3 cells with doxycycline (androgen receptor induced), CellTiter-Glo; assay type: cell-based; conditions: 72 h, T-Rex 293 SC3 cells with 10 ng/mL doxycycline (increased androgen receptor expression)
How it was run: as §1

| SMILES | GI50 (T47D cells; Homo sapiens, T47D, 72 h) | GI50 (VCaP cells) | GI50 (T47D cells) | GI50 ([1]; 72 h) | GI50 [2] | GI50 ([1]; 72 hours) |
| --- | --- | --- | --- | --- | --- | --- |
| Cc1sc2c(c1C)C(c1ccc(N(C)CC(=O)N3CCC(c4ncc(C(=O)N[C@H]5C(C)(C)[C@H](Oc6ccc(C#N)c(Cl)c6)C5(C)C)cn4)CC3)cc1)=N[C@H](Cc1ncco1)c1nnc(C)n1-2 [Compound I-356] | 500 to 1500 nM | < 500 nM | – | > 3000 nM | < 500 nM | – |
| Cc1sc2c(c1C)C(c1ccc(C#CC3CC4(C3)CN(c3ncc(C(=O)N[C@H]5C(C)(C)[C@H](Oc6ccc(C#N)c(Cl)c6)C5(C)C)cn3)C4)cc1)=N[C@@H](Cc1ncco1)c1nnc(C)n1-2 [Compound I-59] | < 500 nM | < 500 nM | – | < 500 nM | < 500 nM | – |
| Cc1sc2c(c1C)C(c1ccc(-n3ccc(C4CCN(c5ncc(C(=O)N[C@H]6C(C)(C)[C@H](Oc7ccc(C#N)c(Cl)c7)C6(C)C)cn5)CC4)n3)cc1)=N[C@@H](Cc1ncco1)c1nnc(C)n1-2 [Compound I-441] | < 500 nM | < 500 nM | – | 500 to 1500 nM | < 500 nM | – |
| Cc1sc2c(c1C)C(c1ccc(C(=O)N3CCC(Cc4ncc(C(=O)N[C@H]5C(C)(C)[C@H](Oc6ccc(C#N)c(Cl)c6)C5(C)C)cn4)CC3)cc1)=N[C@@H](Cc1ncco1)c1nnc(C)n1-2 [Compound I-288] | > 3000 nM | > 3000 nM | – | > 3000 nM | > 3000 nM | – |
| Cc1sc2c(c1C)C(c1ccc(CNC(=O)NCc3ncc(C(=O)N[C@H]4C(C)(C)[C@H](Oc5ccc(C#N)c(Cl)c5)C4(C)C)cn3)cc1)=N[C@@H](Cc1ncco1)c1nnc(C)n1-2 [Compound I-326] | 1500 to 3000 nM | 500 to 1500 nM | – | > 3000 nM | 500 to 1500 nM | – |
| Cc1sc2c(c1C)C(c1ccc(CC[C@H]3C[C@]4(CCCN(c5ncc(C(=O)N[C@H]6C(C)(C)[C@H](Oc7ccc(C#N)c(Cl)c7)C6(C)C)cn5)C4)C3)cc1)=N[C@@H](C)c1nnc(C)n1-2 [Compound I-369] | > 3000 nM | < 500 nM | – | > 3000 nM | < 500 nM | – |
| Cc1sc2c(c1C)C(c1ccc(C3CC3C3CC4(CCN(c5ncc(C(=O)N[C@H]6C(C)(C)[C@H](Oc7ccc(C#N)c(Cl)c7)C6(C)C)cn5)CC4)C3)cc1)=N[C@H](Cc1ncco1)c1nnc(C)n1-2 (stereo partly drawn) [Compound I-150] | > 3000 nM | < 500 nM | – | > 3000 nM | < 500 nM | – |
| CCNC(=O)C[C@@H]1N=C(c2ccc(CCC3CN(c4ncc(C(=O)N[C@H]5C(C)(C)[C@H](Oc6ccc(C#N)c(Cl)c6)C5(C)C)cn4)C3)cc2)c2c(sc(C)c2C)-n2c(C)nnc21 [Compound I-93] | 500 to 1500 nM | < 500 nM | – | 500 to 1500 nM | < 500 nM | – |
| Cc1sc2c(c1C)C(c1ccc(C(=O)N3CCC(N(C)c4ncc(C(=O)N[C@H]5C(C)(C)[C@H](Oc6ccc(C#N)c(Cl)c6)C5(C)C)cn4)CC3)cc1)=N[C@H](Cc1ncco1)c1nnc(C)n1-2 [Compound I-294] | 500 to 1500 nM | 1500 to 3000 nM | – | > 3000 nM | < 500 nM | – |
| Cc1sc2c(c1C)C(c1ccc(CC3CC4(CCN(c5ccc(C(=O)N(C)[C@H]6C(C)(C)[C@H](Oc7ccc(C#N)c(Cl)c7)C6(C)C)cn5)CC4)C3)cc1)=N[C@@H](C)c1nnc(C)n1-2 [Compound I-589] | 500 to 1500 nM | < 500 nM | – | > 3000 nM | < 500 nM | – |
| Cc1sc2c(c1C)C(c1ccc(OC3CC4(CCN(c5ncc(C(=O)N[C@H]6C(C)(C)[C@H](Oc7ccc(C#N)c(Cl)c7)C6(C)C)cn5)CC4)C3)cc1)=N[C@H](Cc1ncco1)c1nnc(C)n1-2 [Compound I-50, N-[3-(3-chloro-4-cyano-phenoxy)-2,2,4,4-tetramethyl-cyclobutyl]-2-[2-[4-[(9R)-4,5,13-trimethyl-9-(oxazol-2-ylmethyl)-3-thia-1,8,11,12-tetrazatricyclo[8.3.0.02,6]trideca-2(6),4,7,10,12-pentaen-7-yl]phenoxy]-7-azaspiro[3.5]nonan-7-yl]pyrimidine-5-carboxamide] | > 3000 nM | > 3000 nM | – | > 3000 nM | < 500 nM | – |
| Cc1sc2c(c1C)C(c1ccc(N3CCC[C@@H](OCCc4ncc(C(=O)N[C@H]5C(C)(C)[C@H](Oc6ccc(C#N)c(Cl)c6)C5(C)C)cn4)C3)cc1)=N[C@@H](Cc1ncco1)c1nnc(C)n1-2 [Compound I-451] | 500 to 1500 nM | < 500 nM | – | 500 to 1500 nM | < 500 nM | – |
| CCNC(=O)C[C@@H]1N=C(c2ccc(N3CCC(CN4CC(N(C)c5ncc(C(=O)N[C@H]6C(C)(C)[C@H](Oc7ccc(C#N)c(Cl)c7)C6(C)C)cn5)C4)CC3)cc2)c2c(sc(C)c2C)-n2c(C)nnc21 [Compound I-128] | 1500 to 3000 nM | 1500 to 3000 nM | – | > 3000 nM | > 3000 nM | – |
| Cc1sc2c(c1C)C(c1ccc(CNC(=O)CN(C)c3ncc(C(=O)N[C@H]4C(C)(C)[C@H](Oc5ccc(C#N)c(Cl)c5)C4(C)C)cn3)cc1)=N[C@@H](Cc1ncco1)c1nnc(C)n1-2 [Compound I-266] | 500 to 1500 nM | < 500 nM | – | > 3000 nM | < 500 nM | – |
| Cc1sc2c(c1C)C(c1ccc(O[C@H]3C[C@H](OC4CCN(c5ncc(C(=O)N[C@H]6C(C)(C)[C@H](Oc7ccc(C#N)c(Cl)c7)C6(C)C)cn5)CC4)C3)cc1)=N[C@@H](Cc1ncco1)c1nnc(C)n1-2 [Compound I-190] | < 500 nM | < 500 nM | – | > 3000 nM | < 500 nM | – |
| Cc1sc2c(c1C)C(c1ccc(C(C)(C)N3CC4(CCCN(c5ncc(C(=O)N[C@H]6C(C)(C)[C@H](Oc7ccc(C#N)c(Cl)c7)C6(C)C)cn5)C4)C3)cc1)=N[C@@H](C)c1nnc(C)n1-2 [Compound I-464] | > 3000 nM | < 500 nM | – | > 3000 nM | < 500 nM | – |
| Cc1sc2c(c1C)C(c1ccc(CN3CC[C@]4(CCCN(c5ncc(C(=O)N[C@H]6C(C)(C)[C@H](Oc7ccc(C#N)c(Cl)c7)C6(C)C)cn5)C4)C3)cc1)=N[C@@H](Cc1ncco1)c1nnc(C)n1-2 [Compound I-145] | < 500 nM | < 500 nM | – | < 500 nM | < 500 nM | – |

Continued, in another order:

| GI50 (T47D cells; Homo sapiens, T47D, 72 h) | GI50 (VCaP cells) | GI50 (T47D cells) | SMILES | GI50 ([1]; 72 h) | GI50 [2] | GI50 ([1]; 72 hours) |
| --- | --- | --- | --- | --- | --- | --- |
| 1500 to 3000 nM | > 3000 nM | – | Cc1sc2c(c1C)C(c1ccc(C(=O)N3CC[C@@]4(CCCN(c5ncc(C(=O)N[C@H]6C(C)(C)[C@H](Oc7ccc(C#N)c(Cl)c7)C6(C)C)cn5)C4)C3)cc1)=N[C@H](Cc1ncco1)c1nnc(C)n1-2 [Compound I-257] | > 3000 nM | < 500 nM | – |
| 1500 to 3000 nM | 500 to 1500 nM | – | Cc1sc2c(c1C)C(c1ccc(C[C@@H]3CC[C@]4(CCCN(c5ncc(C(=O)N[C@H]6C(C)(C)[C@H](Oc7ccc(C#N)c(Cl)c7)C6(C)C)cn5)C4)C3)cc1)=N[C@@H](Cc1ncco1)c1nnc(C)n1-2 [Compound I-165] | > 3000 nM | < 500 nM | – |
| 500 to 1500 nM | < 500 nM | – | Cc1sc2c(c1C)C(c1ccc(CCCN(C)C(=O)c3ncc(C(=O)N[C@H]4C(C)(C)[C@H](Oc5ccc(C#N)c(Cl)c5)C4(C)C)cn3)cc1)=N[C@@H](Cc1ncco1)c1nnc(C)n1-2 [Compound I-362] | > 3000 nM | < 500 nM | – |
| > 3000 nM | < 500 nM | – | COC[C@@H]1N=C(c2ccc(OC3CC4(CCCN(c5ncc(C(=O)N[C@H]6C(C)(C)[C@@H](Oc7ccc(C#N)c(Cl)c7)C6(C)C)cn5)C4)C3)cc2)c2c(sc(C)c2C)-n2c(C)nnc21 [Compound I-567] | > 3000 nM | < 500 nM | – |
| < 500 nM | < 500 nM | – | Cc1sc2c(c1C)C(c1ccc(C#CC3CC4(C3)CN(c3ncc(C(=O)N[C@H]5C(C)(C)[C@H](Oc6ccc(C#N)c(Cl)c6)C5(C)C)cn3)C4)cc1)=N[C@@H](C)c1nnc(C)n1-2 [Compound I-349] | < 500 nM | < 500 nM | – |
| > 3000 nM | > 3000 nM | – | Cc1noc2c1-c1ccccc1C(c1ccc(O[C@H]3C[C@]4(CN(c5ncc(C(=O)N[C@H]6C(C)(C)[C@H](Oc7ccc(C#N)c(Cl)c7)C6(C)C)cn5)CCO4)C3)cc1)=N[C@H]2Cc1ncco1 [Compound I-223] | > 3000 nM | < 500 nM | – |
| < 500 nM | < 500 nM | – | Cc1sc2c(c1C)C(c1ccc(N3CCC4(CC3)CCN(c3ncc(C(=O)N[C@H]5C(C)(C)[C@H](Oc6ccc(C#N)c(Cl)c6)C5(C)C)cn3)C4)cc1)=NC(Cc1ncco1)c1nnc(C)n1-2 (stereo partly drawn) [Compound I-643] | < 500 nM | < 500 nM | – |
| < 500 nM | < 500 nM | – | Cc1sc2c(c1C)C(c1ccc(C3CC(N4CCN(c5ccc(C(=O)N[C@H]6C(C)(C)[C@H](Oc7ccc(C#N)c(Cl)c7)C6(C)C)nc5)CC4)C3)cc1)=N[C@@H](C)c1nnc(C)n1-2 (stereo partly drawn) [Compound I-577] | 500 to 1500 nM | < 500 nM | – |
| – | 500 to 1500 nM | 1500 to 3000 nM | CC[C@@H]1N=C(c2ccc(CC3CCC4(C3)CN(c3ncc(C(=O)N[C@H]5C(C)(C)[C@H](Oc6ccc(C#N)c(Cl)c6)C5(C)C)cn3)CCO4)cc2)c2c(sc(C)c2C)-n2c(C)nnc21 (stereo partly drawn) [Compound I-612] | – | < 500 nM | 500 to 1500 nM |
| < 500 nM | 500 to 1500 nM | – | Cc1sc2c(c1C)C(c1ccc(NCC3(F)CCN(c4ncc(C(=O)N[C@H]5C(C)(C)[C@H](Oc6ccc(C#N)c(Cl)c6)C5(C)C)cn4)CC3)cc1)=NC(Cc1ncco1)c1nnc(C)n1-2 (stereo partly drawn) [Compound I-634] | > 3000 nM | < 500 nM | – |
